From patent US20090099060A1, “Modulation of line-1 reverse transcriptase” (priority 2004, published 2009)
“Also recorded” adds a separate entry of the source.

Key:
[1] = tested on: telomerase-positive tumors (WM1175 malignant melanoma or HUT292DM lung cancer); assay: Telomerase-positive tumors (WM1175 or HUT292DM cells) in immunodeficient mice treated with AZT; format: in vivo; conditions: AZT at the dose used for inhibiting the growth of the ALT cancer cells
Protocol: After induction of the tumors, mice in the experimental groups may be treated with AZT. Mice may be injected i.p. twice a day with solution of AZT in PBS with a total daily dose of 10 mg/kg. Mice in the control group may be injected with PBS. Alternatively, AZT at the same daily dose may be given in drinking water. […] As a separate set of controls, telomerase-positive tumors in nude mouse may be induced by injecting the immunodeficient mice with WM1175 (malignant melanoma) or HUT292DM (lung cancer) cells instead of the transformed IIICF/c fibroblast cells.

[2] = tested on: U-2 OS cells; assay: Bromodeoxyuridine (BdU) incorporation, rate of DNA synthesis in AZT-treated U-2 OS cells; format: cell-based, human; conditions: AZT for 10, 17 and 40 days
Protocol: Rate of DNA synthesis was determined by incorporation of 5-bromodeoxyuridine (BdU)^24.
(§1) Cell lines: All cell lines used in this study were obtained from American Type Culture Collection (Rockville, Md.). The cells origins included osteosarcoma (Saos-2 and U-2 OS), liver ([…]) and uterine cervix (HeLa). Cells were cultured following ATCC recommendation. For treatment of the cells with AZT, the media was supplemented with 0.2 μM of 3′-azido-2′,3′-dideoxythymidine (Sigma)^28.
Bromodeoxyuridine incorporation: Cell staining, for BdU incorporation, was performed using cells which were incubated with […] BrdU (Sigma) for 2.5 h, stained with BU-33 anti-BrdU monoclonal antibodies (Sigma) and FITC labeled Alexa 488 goat anti-mouse IgG (H+ L) (Fab′) fragments (Molecular Probes), contrastained with 50 μg/ml PI (Sigma) and analyzed by flow cytometry as described^24.

[3] = tested on: U-2 OS cells; assay: Telomere length (PNA probe) and cell cycle (PI) by flow cytometry in nucleoside-analog-treated U-2 OS cells; format: cell-based, human
Protocol: (§2) Telomere length in AZT treated and untreated cell lines was measured by flow cytometry with a telomere-specific peptide nucleic acid (PNA) probe^22,23. To determine cell cycle distribution, cells were stained with propidium iodide (PI)^22. […] AZT at the chosen concentration had no effect on telomere length or cell cycle distribution in the HeLa cells (not shown).
Telomere length in untreated (FIG. 4a) and GCV treated cells (FIG. 4b) was measured by flow cytometry with a telomere-specific PNA probe as described above.
To determine cell cycle distribution, cells were stained with propidium iodide (PI).
as §1
(§3) Telomere length measurement by flow cytometry: Cell were stained with telomere specific FITC conjugated (C3TA2)3 PNA (Applied Biosystems) probe and contrastained with 0.06 μg/ml PI as described^21.

[4] = tested on: Saos-2 cells; assay: Telomere length (PNA probe) and cell cycle (PI) by flow cytometry in AZT-treated Saos-2 cells; format: cell-based, human; conditions: Saos-2, AZT 0.2 μM, 14 days
Protocol: as §2, §1, §3

[5] = tested on: HeLa cells; assay: Telomere length and cell cycle by flow cytometry in AZT-treated telomerase-positive HeLa cells; format: cell-based, human; conditions: AZT under the same conditions
Protocol: as §2, §1, §3

[6] = tested on: U-2 OS/ras-V12 s.c. tumors; assay: s.c. tumor growth from U-2 OS/ras-V12 cells in nude mice, AZT in drinking water; format: in vivo; conditions: AZT 2 mg/ml in drinking water from day zero
Text: Exemplary in vivo assays of anti-tumor efficacy of AZT using nude mice subcutaneous (s.c.) tumors grown from the U-2 OS human osteosarcoma cell lines (i.e., xenografts bearing mice) as models are described below.
Human cancerous cells needed for in vivo assays may be prepared, for example, as follows: Telomerase-negative, but ALT positive, U-2 OS human osteosarcoma cell lines are obtained from public sources such as ATCC. Cells are maintained in McCoy 5 media supplemented with 10% fetal calf serum at 37° C. in a humidified atmosphere of 5% CO2. […] Accordingly, activated ras-oncogene expression vector is introduced in near-confluent U-2 OS cells by Lipofectamine 2000% transfection according manufacturer's instructions. One day before transfection U-2 Os cells are seeded at a density 1×10^5 cells in a 6 well-plate. Plasmid pBABE-puro-ras-V12 (available publicly) is linearized by restriction digest with Sca I enzyme. The cells are transfected with the linearized construct and grown in culture. One day after the transfection, cells may be diluted. Then the cells are selected with puromycin ([…]) for 8 days. […]
In one embodiment, impairment of s.c. tumor growth or time to progression rather than decrease in size of an established tumor is assessed. […] Tumors are measured every 2-3 days. […] Tumor volume is calculated with formula 4/3πr^3, where r is the radius of the tumor.

[7] = U-2 OS, GCV 0.3 μg/ml, 14 days, listed as ganciclovir

| Structure (SMILES) | inhibition of telomerase-positive tumors [1] | rate of DNA synthesis (BdU incorporation) [2] | DNA content (PI staining) compared to untreated cells ([3]; AZT treated cells at later stages of treatment) | treatment time after which changes in cell cycle distribution, DNA synthesis and telomere length could be detected ([3]; U-2 OS, AZT) | apoptosis ([3]; U-2 OS, AZT 0.2 μM, 14 days) | cell cycle distribution (PI) ([3]; U-2 OS, AZT 0.2 μM, 14 days) | telomere length (telomere-specific PNA fluorescence) ([3]; U-2 OS, AZT 0.2 μM, 14 days) | telomere length over time of treatment ([3]; U-2 OS, AZT for 10, 17 and 40 days) | apoptosis [4] | cell cycle distribution (PI) [4] | telomere length (telomere-specific PNA fluorescence) [4] | cell cycle distribution [5] | telomere length [5] | tumor development [6] | apoptosis ([3]; U-2 OS, GCV 0.3 μg/ml, 14 days) | cell cycle distribution (PI) ([3]; U-2 OS, GCV 0.3 μg/ml, 14 days) | telomere length (telomere-specific PNA probe) ([3]; U-2 OS, GCV 0.3 μg/ml, 14 days) | cell cycle distribution (PI) [3, 7] | telomere length (telomere-specific PNA probe) [3, 7] |
| --- | --- | --- | --- | --- | --- | --- | --- | --- | --- | --- | --- | --- | --- | --- | --- | --- | --- | --- | --- |
| Cc1cn([C@H]2C[C@H](N=[N+]=[N-])[C@@H](CO)O2)c(=O)[nH]c1=O [AZT, 3′-azido-2′,3′-dideoxythymidine] | cannot be inhibited | decrease in DNA synthesis | higher DNA content | 10 days | massive apoptosis | G2 arrest; also recorded: changes in cell cycle | telomere shortening; also recorded: decrease in telomere length | progressive telomere shortening | massive apoptosis | G2 arrest; also recorded: changes in cell cycle | telomere shortening; also recorded: decrease in telomere length | no effect | no effect | remain tumor free | – | – | – | – | – |
| Nc1nc(O)c2ncn(COC(CO)CO)c2n1 [GCV, ganciclovir] | – | – | – | – | – | – | – | – | – | – | – | – | – | – | massive apoptosis | G2 arrest | telomere shortening | changes in cell cycle | decrease in telomere length |
